Structures are written as SMILES. Read-outs that look alike come from different tables or passages of the source.

Common to all, as to format: in vivo
Data set [1] relates to test mice. As to the kind of experiment: Radioprotective activity in mice against LD100 of γ-radiation (1000 RAD) (Table II). Conditions: for toxicity (in words): at the levels used in this test; for protection against LD100 dose of irradiation (in words): dose level near the LD50 (50 mg/kg), all the mice survived.
Data set [2] can be described thus: Acute toxicity in mice (Table I). Conditions: mouse, in vivo; for survival: read-out: Survivors (%); for LD50: mice, ip. Here is the method: (§1) Radioprotective Agents A, B, C, and D were tested for acute toxicity and radioprotective activity using test mice at various dosage levels against LD100 of γ-radiation. The agents were administered interperitoneally (ip).

Data set [3] concerns test mice. As to the kind of experiment: Acute toxicity in mice (Table I). Conditions: vehicle H2O. The method, then: as §1
The mark [4] stands for this setting: 75 mg/kg ip, 30 min before 1000 RAD.
The mark [5] stands for this setting: 150 mg/kg ip, 30 min before 1000 RAD.
Where [6] appears, read: 300 mg/kg ip, 30 min before 1000 RAD.
Where [7] appears, read: 300 mg/kg po, 30 min before 1000 RAD.
Where [8] appears, read: 600 mg/kg po, 30 min before 1000 RAD.
Setting [9] is: 1200 mg/kg po, 30 min before 1000 RAD.
Where [10] appears, read: 18.75 mg/kg ip, 30 min before 1000 RAD.
[11] abbreviates: 37.5 mg/kg ip, 30 min before 1000 RAD.
[12] abbreviates: 54.3 mg/kg ip, 30 min before 1000 RAD.
Setting [13] is: 109 mg/kg ip, 30 min before 1000 RAD.
[14] abbreviates: 217 mg/kg ip, 30 min before 1000 RAD.
Where [15] appears, read: 435 mg/kg ip, 30 min before 1000 RAD.
The mark [16] stands for this setting: 55.1 mg/kg ip, 0 min before 1000 RAD.
The mark [17] stands for this setting: 110.3 mg/kg ip, 0 min before 1000 RAD.
[18] abbreviates: 220.6 mg/kg ip, 0 min before 1000 RAD.
Where [19] appears, read: 441 mg/kg ip, 0 min before 1000 RAD.

As for `NCCCN1CCSC1c1ccc([N+](=O)[O-])cc1` (stereo not drawn) [A], the “Drug Related Lethality” value is given as 0/10 in data set [1] (setting [4]); 0/10 in data set [1] (setting [5]); 5/10 in data set [1] (setting [6]); 0/10 in data set [1] (setting [7]); 0/10 in data set [1] (setting [8]); 7/10 in data set [1] (setting [9]). The “Survivors (%)” value in data set [1] (setting [4]) was determined as 20%; in data set [1] (setting [5]) it was 30%; in data set [1] (setting [6]) it was 40%; in data set [1] (setting [7]), 0%; in data set [1] (setting [8]) it was 0%; in data set [1] (setting [9]) it was 0%. Also, the “toxicity (in words)” value in data set [1] is given as “toxic”. The survival in data set [2] (75 mg/kg ip, vehicle H2O) came out at 100%; in data set [2] (150 mg/kg ip, vehicle H2O), 100%; in data set [2] (300 mg/kg ip, vehicle H2O) it was 60%; in data set [2] (600 mg/kg ip, vehicle H2O), 0%. Also, the Deaths in data set [3] (75 mg/kg ip) is 0/5; in data set [3] (150 mg/kg ip), 0/5; in data set [3] (300 mg/kg ip), 2/5; in data set [3] (600 mg/kg ip), 5/5.
On to `COc1ccc(C2SCCN2CCCN)cc1` (stereo not drawn) [B], for which the “Drug Related Lethality” value in data set [1] (setting [10]), in data set [1] (setting [11]) and in data set [1] (setting [4]) was 0/10 each time. Moreover, the “Survivors (%)” value in data set [1] (setting [10]) stood at 0%; in data set [1] (setting [11]) it was 0%; in data set [1] (setting [4]), 20%. In addition, the “toxicity (in words)” value in data set [1] was “toxic”. Also, the survival in data set [2] (75 mg/kg ip, vehicle H2O) is 100%; in data set [2] (150 mg/kg ip, vehicle H2O), 20%; in data set [2] (300 mg/kg ip, vehicle H2O) it was 0%; in data set [2] (600 mg/kg ip, vehicle H2O) it was 0%. For the same molecule, the Deaths in data set [3] (75 mg/kg ip) is recorded as 0/5; in data set [3] (150 mg/kg ip), 4/5; in data set [3] (300 mg/kg ip), 5/5; in data set [3] (600 mg/kg ip), 5/5.
Broadly, the LD50 is the dose at which mortality reaches 50%. Read a low LD50 as greater toxicity. With `COc1ccc(C2SCCN2CCCN)cc1OC` (stereo not drawn) [C], the “Drug Related Lethality” value is reported as 0/5 in data set [1] (setting [12]), 5/5 in data set [1] (setting [13]), 5/5 in data set [1] (setting [14]) and 5/5 in data set [1] (setting [15]). Besides, the “Survivors (%)” value in data set [1] (setting [12]) is on record as 100%; in data set [1] (setting [13]) it was 0%; in data set [1] (setting [14]), 0%; in data set [1] (setting [15]), 0%. Further, the “protection against LD100 dose of irradiation (in words)” value in data set [1] is recorded as “complete protection”. The mortality in data set [2] (37.5 mg/kg ip, vehicle H2O, read-out: Deaths) was 50%. The survival worked out at 100% in data set [2] (37.5 mg/kg ip, vehicle H2O); 0% in data set [2] (75 mg/kg ip, vehicle H2O); 0% in data set [2] (150 mg/kg ip, vehicle H2O); 0% in data set [2] (300 mg/kg ip, vehicle H2O). This molecule returned a 50% lethal dose (LD50) in data set [2] of 50 mg/kg. Further, the Deaths in data set [3] (75 mg/kg ip), in data set [3] (150 mg/kg ip) and in data set [3] (300 mg/kg ip) was 5/5 throughout.
With `NCCCN1CCSC1c1ccc2c(c1)OCO2` (stereo not drawn) [D], the “Drug Related Lethality” value was 0/5 in data set [1] (setting [16]), 5/5 in data set [1] (setting [17]), 5/5 in data set [1] (setting [18]) and 5/5 in data set [1] (setting [19]). Moreover, the “Survivors (%)” value in data set [1] (setting [16]) amounted to 100%; in data set [1] (setting [17]), 0%; in data set [1] (setting [18]), 0%; in data set [1] (setting [19]) it was 0%. For the same molecule, in data set [1], the “protection against LD100 dose of irradiation (in words)” value is on record as “complete protection”. Further, the survival in data set [2] (37.5 mg/kg ip, vehicle H2O) worked out at 100%; in data set [2] (75 mg/kg ip, vehicle H2O), 0%; in data set [2] (150 mg/kg ip, vehicle H2O), 0%; in data set [2] (300 mg/kg ip, vehicle H2O), 0%. Further, the LD50 in data set [2] was 50 mg/kg. In addition, the Deaths is 0/5 in data set [3] (37.5 mg/kg ip), 5/5 in data set [3] (75 mg/kg ip), 5/5 in data set [3] (150 mg/kg ip) and 5/5 in data set [3] (300 mg/kg ip).

(Values after patent US5028715A, “Radioprotective agents and their method of manufacture” (priority 1989, dated 1991).)
